Laboratory results as given in paper PMC7301841, “LuxR Solos in the Plant Endophyte Kosakonia sp. Strain KO348” (Applied and Environmental Microbiology, 2020).

target: T1, LoxR (Kosakonia pseudosacchari, UniProt A0ABX4IX59); assay: ligand-dependent solubility on expression in E. coli (total extract vs soluble fraction); assay type: cell-based; conditions: expressed in E. coli in presence of AHL, 0.2 mM IPTG, 37°C overnight
T1 construct: gene BK796_01250; full-length, His6-tagged (pET22b NdeI/XhoI, tag at C-terminus by vector), E. coli BL21(DE3) pLysS; forward primer encodes N-terminus MQDTEFFT
T1 sequence (A0ABX4IX59 entry or part of it): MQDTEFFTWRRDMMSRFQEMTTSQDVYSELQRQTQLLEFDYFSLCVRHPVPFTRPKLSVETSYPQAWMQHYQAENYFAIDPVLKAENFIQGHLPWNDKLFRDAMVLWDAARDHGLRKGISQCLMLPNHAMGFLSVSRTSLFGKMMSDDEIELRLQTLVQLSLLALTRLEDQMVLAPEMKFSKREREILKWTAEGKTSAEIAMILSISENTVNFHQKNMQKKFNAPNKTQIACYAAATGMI

Row | SMILES | ligand-dependent solubility on expression in E. coli (total extract vs soluble f)
1 | CCCC(=O)CC(=O)N[C@H]1CCOC1=O [OC6-HSL] | LoxR was soluble when bound and insoluble when unbound to AHLs
2 | CCCC(O)CC(=O)N[C@H]1CCOC1=O (stereo partly drawn) [OHC6-HSL] | LoxR was soluble when bound and insoluble when unbound to AHLs
3 | CCCCCC(=O)CC(=O)N[C@H]1CCOC1=O [OC8-HSL] | LoxR was soluble when bound and insoluble when unbound to AHLs
4 | CCCCCCCCCC(=O)N[C@H]1CCOC1=O [C10-HSL] | LoxR was soluble when bound and insoluble when unbound to AHLs

target: T1, LoxR; assay: co-purification of complex (Ni-NTA, gel filtration), LC-MS/MS detection of coeluting AHL; ligand-dependent solubility; assay type: binding; conditions: expressed with 10 uM AHL, 16°C; pH 8.5

Row | SMILES | co-purification of complex (Ni-NTA, gel filtration), LC-MS/MS detection of coelu
5 | CCCCCCCCCC(=O)CC(=O)N[C@H]1CCOC1=O [OC12-HSL] | OC12-HSL was also able to solubilize LoxR (data not shown)
6 | CCCCCC(=O)N[C@H]1CCOC1=O [C6-HSL] | It was therefore concluded that AHLs solubilize and bind to LoxR.
